Drawing on ChEMBL document CHEMBL1136522, “Redefining the structure-activity relationships of 2,6-methano-3-benzazocines. Part 2: 8-formamidocyclazocine analogues” (Bioorg Med Chem Lett, 2003), this text covers Ki for 15 compounds.

Molecules are shown by their SMILES.

The target in assay [1] is T1, Mu-type opioid receptor (Cavia porcellus, UniProt P97266). Nature of the assay: Binding affinity towards Opioid receptor mu 1 using [3H]DAMGO as radioligand.
Assay [2] addresses Kappa-type opioid receptor (Cavia porcellus, UniProt P41144). Nature of the assay: Binding affinity was determined towards opioid receptor kappa 1 using [3H]U-69593 as radioligand.
Assay [3] has as its target T1, Mu-type opioid receptor. Description: Binding affinity was determined towards opioid receptor mu1 using [3H]DAMGO as radioligand.
Assay [4] can be described thus: Binding affinity was determined towards Opioid receptor delta 1 using [3H]naltrindole as radioligand.

Usually Ki stands for the equilibrium dissociation constant of an inhibitor or competing ligand from its target. Higher therefore signals weaker binding.

Kappa-type opioid receptor, sequence (P41144 whole entry): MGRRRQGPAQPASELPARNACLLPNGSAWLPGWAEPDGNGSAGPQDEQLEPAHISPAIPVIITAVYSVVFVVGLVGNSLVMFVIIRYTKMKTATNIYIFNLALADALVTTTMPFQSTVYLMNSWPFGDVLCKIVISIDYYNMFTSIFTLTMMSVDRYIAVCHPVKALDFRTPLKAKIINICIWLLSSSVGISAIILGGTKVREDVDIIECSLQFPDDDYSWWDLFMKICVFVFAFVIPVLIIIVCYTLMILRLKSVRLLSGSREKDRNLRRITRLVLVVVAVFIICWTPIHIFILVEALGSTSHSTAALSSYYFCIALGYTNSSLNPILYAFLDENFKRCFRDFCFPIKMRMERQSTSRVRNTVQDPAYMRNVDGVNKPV
T1 sequence (P97266 whole entry): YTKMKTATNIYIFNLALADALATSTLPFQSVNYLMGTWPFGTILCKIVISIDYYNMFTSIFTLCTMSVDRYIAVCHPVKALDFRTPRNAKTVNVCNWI

For `C[C@H]1[C@H]2Cc3ccc(Nc4ccccc4)cc3[C@@]1(C)CCN2CC1CC1`, the Ki on Mu-type opioid receptor [1] is ~1.3 nM.

Take `C[C@H]1C2Cc3ccc(N(C)C=O)cc3[C@@]1(C)CCN2CC1CC1`: the Ki in assay [2] came out at 200 nM; at Mu-type opioid receptor [3] it was 550 nM.

In the case of `O=CNc1ccc2c3c1O[C@H]1C(=O)CC[C@@]4(O)[C@@H](C2)N(CC2CC2)CC[C@]314`, the inhibitory constant (Ki) in assay [2] was determined as 4.2 nM; on Mu-type opioid receptor [3] it was 8.3 nM.

On to `CC[C@@]12CCN(CC3CC3)C(C(=O)c3ccc(NC=O)cc31)[C@@H]2C`, for which the inhibitory constant (Ki) in assay [2] was found to be 1.2 nM; on Mu-type opioid receptor [3], 6.1 nM.

As to `C[C@H]1C2Cc3ccc(NCc4ccccc4)cc3[C@@]1(C)CCN2CC1CC1`, the inhibition constant (Ki) on Mu-type opioid receptor [1] is ~1.3 nM.

Consider `C[C@H]1C2Cc3ccc(NC(=O)c4ccccc4)cc3[C@@]1(C)CCN2CC1CC1`, for which the results for the Ki (in assay [2]; on Mu-type opioid receptor [3]) were 820 nM and 570 nM, respectively.

`C[C@H]1C2Cc3ccc(NC=O)cc3[C@@]1(C)CCN2CC1CC1`: the Ki in assay [2] worked out at 0.85 nM; on Mu-type opioid receptor [3] it was 1.9 nM.

Turning to `CC(=O)Nc1ccc2c(c1)[C@@]1(C)CCN(CC3CC3)C(C2)[C@@H]1C`, the inhibition constant Ki in assay [2] came to 130 nM; on Mu-type opioid receptor [3] it was 240 nM.

Compound `NC(=O)c1ccc2c3c1O[C@H]1C(=O)CC[C@@]4(O)[C@@H](C2)N(CC2CC2)CC[C@]314` showed a Ki in assay [4] of 110 nM.

For `C[C@H]1[C@H]2Cc3ccc(NC=O)cc3[C@]1(C)CCN2CC1CC1`, the inhibitory constant (Ki) in assay [2] came to 0.49 nM; on Mu-type opioid receptor [3] it was 1.1 nM.

Regarding `C[C@H]1C2Cc3ccc(C(N)=O)cc3[C@@]1(C)CCN2CC1CC1`, the inhibition constant Ki in assay [4] came to 8.3 nM.

With `Nc1ccc2c3c1O[C@H]1C(=O)CC[C@@]4(O)[C@@H](C2)N(CC2CC2)CC[C@]314`, the Ki in assay [2] was found to be 5.8 nM; at Mu-type opioid receptor [3], 5.6 nM.

For the compound `CC[C@@]12CCN(CC3CC3)C(C(=O)c3ccc(C(N)=O)cc31)[C@@H]2C`, the affinity in assay [4], expressed as Ki, was 9.8 nM. That is a single-digit nanomolar value.

In the case of `C[C@@H]1C2Cc3ccc(NC=O)cc3C1(C)CCN2CC1CC1` (single isomer, unassigned), the Ki in assay [2] is 900 nM; at Mu-type opioid receptor [3], 2300 nM.

Consider `C[C@H]1[C@H]2Cc3ccc(O)cc3C1(C)CCN2CC1CC1` (single isomer, unassigned) [CYCLAZOCINE], for which the Ki in assay [4] was determined as 1.1 nM.
